{"source": "patent US20120255051A1", "about": "“HERBICIDE TOLERANT PLANTS” (priority 2009, published 2012)", "system": "Brassica plants comprising mutant AHAS alleles", "test": "Greenhouse post-emergence spray test (5 g a.i./ha): survival and plant type rating", "format": "in vivo, Brassica napus", "design": "key to number of surviving plants in plant type 4 / number of surviving plants in plant type 5 / number of surviving plants in plant type 2: 5: normal (corresponding to wildtype unsprayed phenotype); 4: normal height, some side branching, normal leaves; 3: intermediate height, intermediate side branching, normal leaves; 2: short, severe side branching (“bushy”), some leave malformations; 1: short, severe side branching (“bushy”), severe leave malformations", "conditions": "5 g a.i./ha post-emergence", "experimental": "The correlation between the presence of missense and/or full knockout AHAS alleles in a Brassica plant grown in the greenhouse and tolerance to thiencarbazone-methyl was determined as follows. Of the Brassica plants identified in Example 1 and 2, crosses were made to obtain plants comprising both mutant AHAS1 and AHAS3 alleles (F1), which were subsequently backcrossed and selfed (BC1S1). Single gene AHAS missense mutants were backcrossed twice (BC2). These BC1S1 (representing all possible genotype combinations), as well as BC2 single AHAS gene mutant plants (50%+/+, 50%+/−), were sown in a greenhouse. Treatment post-emergence at the 1-2 leaf stage was carried out with a dose of 5 g a.i./ha of thiencarbazone-methyl and surviving plants were transplanted to 9 cm pots 10 days after spraying. The plants were evaluated for phenotype (height, side branching and leave morphology) 20 days after transplantation on scale of 5 to 1, where; type 5=normal (corresponding to wildtype unsprayed phenotype); type 4=normal height, some side branching, normal leaves; type 3=intermediate height, intermediate side branching, normal leaves; type 2=short, severe side branching (“bushy”), some leave malformations; type 1=short, severe side branching (“bushy”), severe leave malformations (Table 4).", "key": {"[1]": {"conditions": "BC1S1 HETO108/HETO102, 204 sown, 201 germinated"}, "[2]": {"conditions": "BC1S1 HETO108/HETO103, 204 sown, 199 germinated"}, "[3]": {"conditions": "BC1S1 HETO108/HETO104, 204 sown, 200 germinated"}, "[4]": {"conditions": "BC1S1 HETO112/HETO111, 204 sown, 204 germinated"}, "[5]": {"conditions": "BC2 HETO108, 51 sown, 50 germinated"}, "[6]": {"conditions": "BC2 HETO111, 51 sown, 49 germinated"}}}
{"smiles": "COC(=O)c1csc(C)c1S(=O)(=O)NC(=O)n1nc(OC)n(C)c1=O", "note": "[thiencarbazone-methyl, methyl 4-[(4,5-dihydro-3-methoxy-4-methyl-5-oxo-1H-1,2,4-triazol-1-yl)carbonylsulfamoyl]-5-methylthiophene-3-carboxylate]", "values": [{"measurement": "number of surviving plants in plant type 1", "setting": "[1]", "result": 108}, {"measurement": "number of surviving plants in plant type 2", "setting": "[1]", "result": 34}, {"measurement": "number of surviving plants in plant type 3", "setting": "[1]", "result": 21}, {"measurement": "number of surviving plants in plant type 4", "setting": "[1]", "result": 1}, {"measurement": "number of surviving plants in plant type 5", "setting": "[1]", "result": 0}, {"measurement": "number of surviving plants transplanted after spraying (trans)", "setting": "[1]", "result": 169}, {"measurement": "number of surviving plants in plant type 1", "setting": "[2]", "result": 88}, {"measurement": "number of surviving plants in plant type 2", "setting": "[2]", "result": 18}, {"measurement": "number of surviving plants in plant type 3", "setting": "[2]", "result": 41}, {"measurement": "number of surviving plants in plant type 4", "setting": "[2]", "result": 4}, {"measurement": "number of surviving plants in plant type 5", "setting": "[2]", "result": 0}, {"measurement": "number of surviving plants transplanted after spraying (trans)", "setting": "[2]", "result": 151}, {"measurement": "number of surviving plants in plant type 1", "setting": "[3]", "result": 66}, {"measurement": "number of surviving plants in plant type 2", "setting": "[3]", "result": 18}, {"measurement": "number of surviving plants in plant type 3", "setting": "[3]", "result": 28}, {"measurement": "number of surviving plants in plant type 4", "setting": "[3]", "result": 2}, {"measurement": "number of surviving plants transplanted after spraying (trans)", "setting": "[3]", "result": 115}, {"measurement": "number of surviving plants in plant type 5", "setting": "BC1S1 HETO108/HETO104, 204 sown, 200 germinated (probably missed during spraying)", "result": 1}, {"measurement": "number of surviving plants in plant type 1", "setting": "[4]", "result": 94}, {"measurement": "number of surviving plants in plant type 2", "setting": "[4]", "result": 23}, {"measurement": "number of surviving plants in plant type 3", "setting": "[4]", "result": 35}, {"measurement": "number of surviving plants in plant type 4", "setting": "[4]", "result": 0}, {"measurement": "number of surviving plants in plant type 5", "setting": "[4]", "result": 0}, {"measurement": "number of surviving plants transplanted after spraying (trans)", "setting": "[4]", "result": 152}, {"measurement": "number of surviving plants in plant type 1", "setting": "[5]", "result": 20}, {"measurement": "number of surviving plants in plant type 2", "setting": "[5]", "result": 2}, {"measurement": "number of surviving plants in plant type 3", "setting": "[5]", "result": 0}, {"measurement": "number of surviving plants in plant type 4", "setting": "[5]", "result": 0}, {"measurement": "number of surviving plants in plant type 5", "setting": "[5]", "result": 0}, {"measurement": "number of surviving plants transplanted after spraying (trans)", "setting": "[5]", "result": 22}, {"measurement": "number of surviving plants in plant type 1", "setting": "[6]", "result": 22}, {"measurement": "number of surviving plants in plant type 2", "setting": "[6]", "result": 0}, {"measurement": "number of surviving plants in plant type 3", "setting": "[6]", "result": 0}, {"measurement": "number of surviving plants in plant type 4", "setting": "[6]", "result": 0}, {"measurement": "number of surviving plants in plant type 5", "setting": "[6]", "result": 0}, {"measurement": "number of surviving plants transplanted after spraying (trans)", "setting": "[6]", "result": 25}, {"measurement": "number of surviving plants in plant type 1", "setting": "wt, 51 sown, 51 germinated", "result": 0}, {"measurement": "number of surviving plants in plant type 2", "setting": "wt, 51 sown, 51 germinated", "result": 0}, {"measurement": "number of surviving plants in plant type 3", "setting": "wt, 51 sown, 51 germinated", "result": 0}, {"measurement": "number of surviving plants in plant type 4", "setting": "wt, 51 sown, 51 germinated", "result": 0}, {"measurement": "number of surviving plants in plant type 5", "setting": "wt, 51 sown, 51 germinated", "result": 0}, {"measurement": "number of surviving plants transplanted after spraying (trans)", "setting": "wt, 51 sown, 51 germinated", "result": 0}]}
